Drawing on patent publication US10538532B2, “Hepatitis B antiviral agents” (ENANTA PHARMACEUTICALS, INC., priority 2016, dated 2020), this text covers EC50 for 39 molecules.

This assay concerns HBV. As to the kind of experiment: HepAD38 antiviral assay: reduction of viral product accumulation (virion DNA by qPCR, HBsAg or HBeAg by ELISA). The assay is classed as cell-based, hepatitis B virus. Conditions: HepAD38 cells, five days after compound addition, concentration reducing viral product accumulation by 50% relative to no drug controls, read-out: HepAD38 EC50. In outline: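 EC50 values represent 50% reduction of viral product accumulation in lysates or supernatants relative to untreated controls, with virion DNA read by qPCR and HBsAg/HBeAg by ELISA. Measurements followed 5 days of treatment, or 8 days with compound renewed on d2 and d5. Cells were tetracycline-depleted HepAD38 at 35,000/well, dosed with a 1:200 dilution of DMSO stocks.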
(Real-time PCR tracks product formation cycle by cycle.)

Where [1] appears, read: Hepatitis B virus, HePAD38, 120 h.

Read-outs that look alike come from different tables or passages of the source.

The EC50 is the concentration giving half of the maximal effect. As to `O=C(Nc1cc(F)c(F)c(F)c1)c1ccc(Cl)c(S(=O)(=O)[C@H]2CC3CCC(C2)[C@@H]3O)c1` [Example 192], the EC50 under setting [1] is 100 to 400 nM.
Turning to `O=C(Nc1cc(F)c(F)c(F)c1)c1ccc(Cl)c(S(=O)(=O)C[C@@H]2C3CC[C@H]2C[C@H](O)C3)c1` [Example 193], the 50% effective concentration (EC50) under setting [1] was in the range of 100 to 400 nM.
In the case of `O=C(Nc1cc(F)c(F)c(F)c1)c1ccc(Cl)c(S(=O)(=O)C[C@H]2C3CCC2C[C@H](O)C3)c1` [Example 194], the concentration giving a half-maximal response (EC50) under setting [1] is under 100 nM.
On the same count and under the same terms, next, `CC(C)(C)[Si](C)(C)O[C@H]1C2CCC1C[C@@H](S(=O)(=O)c1cc(C(=O)Nc3cc(F)c(F)c(F)c3)ccc1Cl)C2` [Example 195]: over 400 nM; `C/[N+]([O-])=C\[C@]1(O)CC2CC[C@@H](C1)[C@H]2S(=O)(=O)c1cc(C(=O)Nc2cc(F)c(F)c(F)c2)ccc1Cl` [Example 196]: under 100 nM; `CCOC(OCC)[C@]1(O)CC2CC[C@@H](C1)[C@H]2S(=O)(=O)c1cc(C(=O)Nc2cc(F)c(F)c(F)c2)ccc1Cl` [Example 197]: 100 to 400 nM.
Turning to `O=C(Nc1cccnc1)N[C@@H]1C2CC[C@H]1C[C@H](S(=O)(=O)c1cc(C(=O)Nc3cc(F)c(F)c(F)c3)ccc1Cl)C2` [Example 198], the EC50 under setting [1] was under 100 nM.
As to `O=C(Nc1cc(F)c(F)c(F)c1)c1ccc(Cl)c(S(=O)(=O)[C@H]2C3CC[C@H]2C[C@](O)(/C=[N+](\[O-])Cc2ccccc2)C3)c1` [Example 199], under setting [1], the 50% effective concentration (EC50) fell in the range of 100 to 400 nM.
Consider `CN1OCC(C#N)C1[C@]1(O)CC2CC[C@@H](C1)[C@H]2S(=O)(=O)c1cc(C(=O)Nc2cc(F)c(F)c(F)c2)ccc1Cl` (stereo partly drawn) [Example 200], for which, under setting [1], the EC50 fell in the range of 100 to 400 nM.
As to `CO/N=C/[C@]1(O)CC2CC[C@@H](C1)[C@H]2S(=O)(=O)c1cc(C(=O)Nc2cc(F)c(F)c(F)c2)ccc1Cl` [Example 201], under setting [1], the EC50 was under 100 nM.
For the molecule `CCO/N=C/[C@]1(O)CC2CC[C@@H](C1)[C@H]2S(=O)(=O)c1cc(C(=O)Nc2cc(F)c(F)c(F)c2)ccc1Cl` [Example 202], the EC50 under setting [1] is under 100 nM.
As for `CC(C)(C)O/N=C/[C@]1(O)CC2CC[C@@H](C1)[C@H]2S(=O)(=O)c1cc(C(=O)Nc2cc(F)c(F)c(F)c2)ccc1Cl` [Example 203], the half-maximal effective concentration (EC50) under setting [1] was under 100 nM.
Regarding `C=CCO/N=C/[C@]1(O)CC2CC[C@@H](C1)[C@H]2S(=O)(=O)c1cc(C(=O)Nc2cc(F)c(F)c(F)c2)ccc1Cl` [Example 204], the EC50 under setting [1] is under 100 nM.
Turning to `O=C(Nc1cc(F)c(F)c(F)c1)c1ccc(Cl)c(S(=O)(=O)[C@H]2C3CC[C@H]2C[C@](O)(/C=N/OCc2ccccc2)C3)c1` [Example 205], the concentration for a half-maximal effect (EC50) under setting [1] is under 100 nM.
Turning to `O=C(Nc1cc(F)c(F)c(F)c1)c1ccc(Cl)c(S(=O)(=O)C2CC3CCC(C2)C3=O)c1` (stereo not drawn) [Example 206], the concentration for a half-maximal effect (EC50) is over 400 nM.
For `C=C1C2CCC1CC(S(=O)(=O)c1cc(C(=O)Nc3cc(F)c(F)c(F)c3)ccc1Cl)C2` (stereo not drawn) [Example 207], the EC50 under setting [1] is over 400 nM.
As to `O=C(Nc1cc(F)c(F)c(F)c1)c1ccc(Cl)c(S(=O)(=O)[C@H]2CC3CCC(C2)[C@]3(O)CO)c1` [Example 208], the EC50 is over 400 nM.
As to `N#CC1CON(Cc2ccccc2)C1[C@]1(O)CC2CC[C@@H](C1)[C@H]2S(=O)(=O)c1cc(C(=O)Nc2cc(F)c(F)c(F)c2)ccc1Cl` (stereo partly drawn) [Example 209], under setting [1], the EC50 was over 400 nM.
For the molecule `N#CC1CON(Cc2ccccc2)C1C1=C[C@@H]2CCC(C1)[C@@H]2S(=O)(=O)c1cc(C(=O)Nc2cc(F)c(F)c(F)c2)ccc1Cl` (stereo partly drawn) [Example 210], the 50% effective concentration (EC50) under setting [1] was over 400 nM.
`COC(=O)C1CON(Cc2ccccc2)[C@@]12CC1CC[C@@H](C2)[C@H]1S(=O)(=O)c1cc(C(=O)Nc2cc(F)c(F)c(F)c2)ccc1Cl` (stereo partly drawn) [Example 211]: the 50% effective concentration (EC50) under setting [1] is over 400 nM.
As for `COC(=O)C1OCN(Cc2ccccc2)[C@]12CC1CC[C@@H](C2)[C@H]1S(=O)(=O)c1cc(C(=O)Nc2cc(F)c(F)c(F)c2)ccc1Cl` (stereo partly drawn) [Example 212], the EC50 under setting [1] was over 400 nM.
For `COC(=O)C1CON(Cc2ccccc2)C1[C@]1(O)CC2CC[C@@H](C1)[C@H]2S(=O)(=O)c1cc(C(=O)Nc2cc(F)c(F)c(F)c2)ccc1Cl` (stereo partly drawn) [Example 213], the concentration giving a half-maximal response (EC50) under setting [1] was over 400 nM.
`COC(=O)C1CON(Cc2ccccc2)C1C1=C[C@@H]2CCC(C1)[C@@H]2S(=O)(=O)c1cc(C(=O)Nc2cc(F)c(F)c(F)c2)ccc1Cl` (stereo partly drawn) [Example 214]: the EC50 under setting [1] lay within 100 to 400 nM.
In the case of `COC(=O)C1=CON(Cc2ccccc2)C1[C@]1(O)CC2CC[C@@H](C1)[C@H]2S(=O)(=O)c1cc(C(=O)Nc2cc(F)c(F)c(F)c2)ccc1Cl` (stereo partly drawn) [Example 215], the EC50 under setting [1] was over 400 nM.
Consider `COC(=O)C1=CON(Cc2ccccc2)C1[C@]1(O)CC2CC[C@@H](C1)[C@H]2S(=O)(=O)c1cc(C(=O)Nc2cc(F)c(F)c(F)c2)ccc1Cl` (stereo partly drawn) [Example 216], for which the EC50 was over 400 nM.
In the case of `COC(=O)C1CON(C)[C@@]12CC1CC[C@@H](C2)[C@H]1S(=O)(=O)c1cc(C(=O)Nc2cc(F)c(F)c(F)c2)ccc1Cl` (stereo partly drawn) [Example 217], under setting [1], the concentration for a half-maximal effect (EC50) is over 400 nM.
`COC(=O)C1CON(C)[C@]12CC1CC[C@@H](C2)[C@H]1S(=O)(=O)c1cc(C(=O)Nc2cc(F)c(F)c(F)c2)ccc1Cl` (stereo partly drawn) [Example 218]: the EC50 under setting [1] is over 400 nM.
Same read-out and setting: next, `CCOC(=O)/C=C1/CC2CC[C@@H](C1)[C@H]2S(=O)(=O)c1cc(C(=O)Nc2cc(F)c(F)c(F)c2)ccc1Cl` [Example 221]: 100 to 400 nM.
As for `CCOC(=O)/C=C/[C@]1(O)CC2CC[C@@H](C1)[C@H]2S(=O)(=O)c1cc(C(=O)Nc2cc(F)c(F)c(F)c2)ccc1Cl` [Example 222], under setting [1], the half-maximal effective concentration (EC50) was over 400 nM.
`O=C(Nc1cc(F)c(F)c(F)c1)c1ccc(Cl)c(S(=O)(=O)[C@H]2CC3CCC(C2)[C@@]3(O)CO)c1` [Example 223]: the concentration for a half-maximal effect (EC50) under setting [1] was under 100 nM.
Take `O=C(Nc1cc(F)c(F)c(F)c1)c1ccc(Cl)c(S(=O)(=O)[C@H]2C3CC[C@H]2C[C@](O)(/C=N/OCc2ccc(-c4ccccc4)cc2)C3)c1` [Example 224]: the half-maximal effective concentration (EC50) under setting [1] is 100 to 400 nM.
For the molecule `O=C(O)/C=C/[C@]1(O)CC2CC[C@@H](C1)[C@H]2S(=O)(=O)c1cc(C(=O)Nc2cc(F)c(F)c(F)c2)ccc1Cl` [Example 225], the EC50 under setting [1] is over 400 nM.
On to `O=C(Nc1cc(F)c(F)c(F)c1)c1ccc(Cl)c(S(=O)(=O)[C@H]2C3CC[C@H]2C[C@H](/C=N/O)C3)c1` [Example 229], for which the EC50 under setting [1] is under 100 nM.
In the case of `Cc1ccc(CO/N=C/[C@]2(O)CC3CC[C@@H](C2)[C@H]3S(=O)(=O)c2cc(C(=O)Nc3cc(F)c(F)c(F)c3)ccc2Cl)cc1` [Example 230], under setting [1], the 50% effective concentration (EC50) was 100 to 400 nM.
Consider `O=C(Nc1cc(F)c(F)c(F)c1)c1ccc(Cl)c(S(=O)(=O)[C@H]2C3CC[C@H]2C[C@](O)(/C=N/OCc2ccc(C(F)(F)F)cc2)C3)c1` [Example 231], for which the EC50 under setting [1] is 100 to 400 nM.
Consider `O=C(Nc1cc(F)c(F)c(F)c1)c1ccc(Cl)c(S(=O)(=O)[C@H]2C3CC[C@H]2C[C@](O)(/C=N/OCc2ccc(F)cc2)C3)c1` [Example 232], for which the EC50 under setting [1] was under 100 nM.
For `COc1ccc(CO/N=C/[C@]2(O)CC3CC[C@@H](C2)[C@H]3S(=O)(=O)c2cc(C(=O)Nc3cc(F)c(F)c(F)c3)ccc2Cl)cc1` [Example 233], the half-maximal effective concentration (EC50) under setting [1] is under 100 nM.
Regarding `O=C(Nc1cc(F)c(F)c(F)c1)c1ccc(Cl)c(S(=O)(=O)[C@H]2C3CC[C@H]2C[C@](O)(/C=N/OCc2ccc([N+](=O)[O-])cc2)C3)c1` [Example 234], under setting [1], the 50% effective concentration (EC50) fell in the range of 100 to 400 nM.
As to `O=C(Nc1cc(F)c(F)c(F)c1)c1ccc(Cl)c(S(=O)(=O)[C@H]2C3CC[C@H]2C[C@](O)(/C=N/OCc2c(F)c(F)c(F)c(F)c2F)C3)c1` [Example 235], under setting [1], the EC50 lay within 100 to 400 nM.
